# Assay results taken from patent US7491704B2, “Compounds for enzyme inhibition” (Proteolix, Inc., priority 2004, dated 2009).
# Legend:
# [1] = target: T1, proteasome chymotrypsin-like activity (CT-L), cell-based (Homo sapiens, UniProt P28074); assay: Cell-based CT-L activity inhibition
# T1 construct: endogenous in cells
# T1 sequence (P28074 60-263): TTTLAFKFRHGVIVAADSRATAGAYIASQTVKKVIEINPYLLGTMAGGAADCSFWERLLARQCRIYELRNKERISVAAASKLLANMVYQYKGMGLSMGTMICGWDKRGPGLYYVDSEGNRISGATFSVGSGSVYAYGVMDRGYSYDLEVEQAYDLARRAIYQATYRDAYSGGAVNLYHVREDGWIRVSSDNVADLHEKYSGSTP
# [2] = target: 20S proteasome chymotrypsin-like activity (CT-L) (Homo sapiens, UniProt P20618+P28074); assay: 20S proteasome chymotrypsin-like (CT-L) activity inhibition; format: biochemical
# Procedure: The enzyme inhibitor analogs and prodrugs disclosed herein are useful in part because they inhibit the action of the 20S proteasome. […] That is, the instant compounds show selectivities for the 20S proteasome over other proteases such as cathepsins, calpains, papain, chymotrypsin, trypsin, tripeptidyl pepsidase II. The selectivities of the enzyme inhibitors for 20S proteasome are such that at concentrations below about 50 μM, the enzyme inhibitors show inhibition of the catalytic activity of the 20S proteasome, while not showing inhibition of the catalytic activity of other proteases such as cathepsins, calpains, papain, chymotrypsin, trypsin, tripeptidyl pepsidase II. In preferred embodiments, the enzyme inhibitors show inhibition of the catalytic activity of the 20S proteasome at concentrations below about 10 μM, while not showing inhibition of the catalytic activity of other proteases at these concentrations. […]
# The chymotrypsin-like activity of 20S proteasome is characterized by cleavage of peptides in the immediate vicinity of large hydrophobic residues. In particular, the chymotrypsin-like activity of Ntn hydrolases can be determined by cleavage of a standard substrate. […]
structure (smiles),measurement,setting,value
CC(C)CC(NC(=O)C(CCc1ccccc1)NC(=O)CN(C)C)C(=O)NC(Cc1ccccc1)C(=O)NC(CC(C)C)C(=O)C1(C)CO1 (centres unmarked) [compound 3],IC50,[1],< 100 nM
same,IC50,[2],< 100 nM
